Test results: patent US20230405035A1, “MONTBRETIN A FUNCTIONAL FOOD” (THE UNIVERSITY OF BRITISH COLUMBIA, priority 2020, published 2023)

Legend:
[1] = HPLC analysis of MbA bread extracts (integrity of MbA after baking); assay type: physicochemical; conditions: MbA baked in bread to an internal temperature of 100° C., methanol extract; control = MbA added after baking (MbA*)
Experimental: MbA was added as a primary ingredient to a standard bread recipe and to evaluate the integrity of the additive after baking. To this end MbA was added (45 mg) as part of the raw dough (225 g) and separated into 25 g half-servings after kneading. After baking to an internal temperature of 100° C., the samples were extracted with methanol and subject to HPLC and kinetic analysis. In parallel, control samples containing no MbA (MbA−) or MbA added after baking (MbA*) were assessed in an analogous manner.
Two approximately 225 g batches of bread were prepared, one containing MbA the other with no MbA. For each batch: • 1. 5 mL of yeast was activated by mixing with 62.5 mL 43.3° C. water and ¼ tsp sucrose then incubated on the bench top for 10 min. • 2. ½ cup of all-purpose flour was mixed with ½ cup whole-wheat flour and ⅛ tsp NaCl (and 45 mg* MbA for the MbA+ batch only). *The target MbA concentration was 10 mg per serving of bread:
[formula] • 3. The flour mixture was combined with the activated yeast mixture and 25 mL room temperature water then stirred until a dough formed. • 4. Dough kneaded for 10 min by hand. • 5. Dough was rested at room temperature for 30 min. • 6. […]
100 μL of each bread extract was injected on HPLC as described above. MbA was quantified by integrating the MbA on the HPLC trace to standard curve of known MbA amounts.

[2] = biological target: T1, human pancreatic α-amylase (HPA) (Homo sapiens, UniProt P04746); assay: HPA inhibition IC50 assay with colorimetric substrate CNPG3; assay type: biochemical; conditions: following standard bread production processes
T1 sequence (P04746 16-511): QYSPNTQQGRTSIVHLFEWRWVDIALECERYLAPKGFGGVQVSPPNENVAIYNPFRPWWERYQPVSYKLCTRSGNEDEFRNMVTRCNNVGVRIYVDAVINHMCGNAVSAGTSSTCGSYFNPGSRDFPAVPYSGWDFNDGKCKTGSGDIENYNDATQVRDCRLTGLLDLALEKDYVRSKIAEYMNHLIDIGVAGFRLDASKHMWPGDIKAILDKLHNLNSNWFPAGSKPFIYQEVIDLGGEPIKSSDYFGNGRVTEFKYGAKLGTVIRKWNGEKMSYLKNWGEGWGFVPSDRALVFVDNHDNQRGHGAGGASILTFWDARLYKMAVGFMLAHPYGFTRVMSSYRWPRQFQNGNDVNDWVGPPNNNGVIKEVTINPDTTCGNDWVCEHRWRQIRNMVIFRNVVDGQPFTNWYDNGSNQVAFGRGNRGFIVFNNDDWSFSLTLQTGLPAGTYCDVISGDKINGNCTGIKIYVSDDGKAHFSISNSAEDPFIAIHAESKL
Experimental: MbA inhibits the activity of human pancreatic α-amylase (HPA). To determine whether and to what extent the prepared bread extract inhibits HPA, enzymatic assays were performed with the colorimetric substrate 2-chloro-4-nitrophenyl-[…] (CNPG3).
HPA inhibition activity of the bread prepared as described above was determined by monitoring CNPG3 concentration. 20 μL of 200, 100, 40, 20 or 8 mM CNPG3 were combined with 170 μL buffer (50 mM phosphate pH 7.0, 100 mM NaCl) in quartz cuvettes and placed in a CARYXXX UV/Vis spectrophotometer. • 2. To each of the five cuvettes, 10 μL of HPA solution was rapidly added to the 190 μL buffered substrate solution. • 3. Spectrophotometer was set to continuously measure absorbance at 400 nm over 5 min. • 4. […] Rates were calculated from t=1 to t=3 (Δ400 nm/min), plotted against CNPG3 concentration and fit with the Michaelis-Menten equation.
20 μL of 40 mM CNPG was combined with 150 μL buffer and 20 μL MbA− or MbA+ bread extract (either ×100 or ×1000 diluted with water). […] Spectrophotometer was set to continuously measure absorbance at 400 nm over 5 min. • 4. Rates were calculated from t=1 to t=3 (Δ400 nm/min), plotted on a bar graph.
Three sets of bread extractions were done to measure IC50: • A. Bread baked with MbA (MbA+) • B. Bread baked without MbA (MbA−) • C. […] IC50s were measured using the HPA/CNPG3 assay described above: • 1. […]

MbA intact relative to control (HPLC traces) [1]: 84% | activity retained relative to the unbaked controls (MbA*) [2]: greater than 80%
Compound: CC1O[C@@H](O[C@@H]2CO[C@@H](Oc3c(O)cc(-c4oc5cc(O)cc(O)c5c(=O)c4O[C@@H]4OC(C)[C@H](O)[C@H](O)C4O[C@@H]4OC(COC(=O)/C=C/c5ccc(O)c(O)c5)[C@@H](O)[C@@H](O)C4O[C@@H]4OC(CO)[C@@H](O)[C@@H](O)C4O)cc3O)C(O)[C@@H]2O)C(O)[C@@H](O)[C@H]1O (some centres unmarked) [MbA, Montbretin A]
